Assay: in vitro
Details: human, hela cells, % viability

Compound	viability at 28.5 h, 10 µM [%]
O=C(CSc1nccn(-c2ccc(F)cc2)c1=O)Nc1ccc(F)cc1 [CBK287768]	91.2
COCCCNc1nc2c(-c3ccc(Cl)cc3)nnn2c2ccccc12 [CBK287770]	96.3
COc1ccc(CNC(=O)C2CCCN(c3cnc4ccccc4n3)C2)cc1 (centres unmarked) [CBK287772]	112
COc1cc(-c2noc(-c3cc(-c4ccccc4)n[nH]3)n2)cc(OC)c1OC [CBK287774]	92.3
Cc1nc2c(c(=O)c3ccccc3n2C)c(=O)n1Cc1ccco1 [CBK287776]	100
CCCCN1CC(=O)C(c2nc3ccccc3[nH]2)=C1N [CBK287777]	93.7
CN(C)CCCN1C(=O)C(O)=C(C(=O)c2ccccc2)C1c1ccccn1 (centres unmarked) [CBK287778]	110
Cc1cc(N2C(=O)c3oc4ccccc4c(=O)c3C2c2ccncc2)no1 (centres unmarked) [CBK287780]	103
Cn1c(C2CC(=O)N(c3ccc(Cl)cc3)C2)nc2ccccc21 (centres unmarked) [CBK287783]	87.1
CCCn1c(CN2CCOCC2)nc2ccccc21 [CBK287784]	99.1
O=C(Nc1ccncc1)c1ccc(S(=O)(=O)N2CCCC2)cc1 [CBK287786]	106
O=C(Nc1ccncc1)c1cc(-c2ccncc2)nc2ccccc12 [CBK287787]	100
O=C(CSc1ncnc2c1oc1ccccc12)NC1CCCC1 [CBK287788]	99.4
Cc1ccc(NC(=O)c2ccc(-n3nncc3C)cc2)cc1 [CBK287790]	80.9
CCCCNc1cc(C)nc2c(-c3ccccc3)cnn12 [CBK287792]	92.1
CCN1CCN(c2cc(C)nc3c(-c4ccccc4)cnn23)CC1 [CBK287793]	88.4
CCOc1cc(C)ccc1S(=O)(=O)n1nnc2ccccc21 [CBK287796]	97.3
Cc1nc2c(-c3ccccc3)cnn2c(N2CCCC2)c1C [CBK287799]	89
O=C(c1ccncc1)N1CCc2cc(S(=O)(=O)N3CCOCC3)ccc21 [CBK287800]	92.8
Cc1ccc2oc(C(=O)Nc3ccc(-n4cnnn4)cc3)c(C)c2c1 [CBK287804]	88.1
CCCNc1cc(C)nc2cc(-c3ccc(OC)c(OC)c3)nn12 [CBK287805]	88.2
COc1ccc2ncc(C#N)c(Nc3ccc(OC)c(OC)c3)c2c1 [CBK287808]	92.3
Cc1ccc(NC(=O)Cn2cnc3c(-c4ccccc4)csc3c2=O)cc1 [CBK287812]	104
COc1ccc(NC(=O)c2c[nH]c3nc(C)ccc3c2=O)cc1 [CBK287816]	88.4

Compound	viability at 28.5 h, 10 µM [%]
COc1ccc(NC(=O)CSc2cc(-n3cccn3)ncn2)cc1 [CBK287819]	116
Cc1ccc(NC(=O)CSc2cc(-n3nc(C)cc3C)ncn2)cc1 [CBK287820]	89
CCCCNC(=O)CCn1c(=O)[nH]c2ccccc2c1=O [CBK287824]	97
CCn1nnc2c(=O)n(CC(=O)Nc3ccccc3)cnc21 [CBK287828]	85.5
O=C(Nc1nnc(Cc2cccs2)o1)c1ccccc1 [CBK287831]	83.9
O=C(c1ccc(F)cc1)N1CCN(c2ccc(Nc3ccncc3)nn2)CC1 [CBK287836]	99.7
Cc1cc(=O)n2c(-c3ccc(NS(=O)(=O)c4cccnc4)cc3)csc2n1 [CBK287837]	91.6
CCCn1c(C(=O)Nc2cccnc2)cc2c(=O)n(C)c(=O)n(C)c21 [CBK287838]	90.8
O=S(=O)(c1ccccc1)N1CCN(c2cnccn2)CC1 [CBK287839]	88.9
COc1ccc(NC(=O)c2csc(Nc3ccccc3)n2)cc1OC [CBK287840]	83.7
Cc1cc(C)cc(NC(=O)Cc2cc(=O)[nH]c(SCc3ccccc3)n2)c1 [CBK287842]	112
Cc1nc(-c2nnc(NC(=O)COc3ccc(Cl)cc3Cl)o2)cs1 [CBK287843]	109
Nc1nc2ccc(-c3nc4ccccc4o3)cc2s1 [CBK287846]	57.4
CCN1C(=O)CC(n2c(C)nc3ccccc32)C1=O (centres unmarked) [CBK287847]	108
Cc1cccc(Nc2ncc(Cc3ccccc3C)s2)n1 [CBK287849]	94.8
O=C(O)c1cnc2ccc(F)cc2c1N1CCOCC1 [CBK287851]	82.5
Cc1ccccc1NC(=O)Cn1c(=O)cnc2ccccc21 [CBK287852]	100
O=c1sc(Nc2ccccc2)nc2ccsc12 [CBK287853]	91.9
CCc1ccc(Oc2cc(N3CCC(C(=O)NC4CC4)CC3)ncn2)cc1 [CBK287854]	102
CC(=O)c1cnc2nc(-c3cccnc3)nn2c1C [CBK287859]	112
CCCCCOc1ccc(C2NC(=O)NC2=O)cc1 (centres unmarked) [CBK287865]	89
O=C(CCC1CCCCC1)Nc1c[nH]c(=O)[nH]c1=O [CBK287867]	90.4
c1ccc(-c2onc3cc4c(cc23)OCCO4)cc1 [CBK287869]	82.8
O=C1CCCc2nccc(-c3ccc(Cl)cc3)c21 [CBK287870]	82.9

Compound	viability at 28.5 h, 10 µM [%]
CC(=O)c1c(C)c2c(=O)n3c(nc2[nH]c1=O)CCC3 [CBK287872]	93.6
O=C1N=C2C=CC=CN2C(=O)C1Cc1ccccc1 (centres unmarked) [CBK287874]	110
CCCCc1c(O)[nH]c2nc3ccccc3n2c1=O [CBK287875]	98.1
COc1ccc2c(c1)Cc1sc(NC(C)=O)nc1-2 [CBK287876]	93.8
COc1ccc(CNC(=O)c2nc(-c3ccccn3)no2)cc1 [CBK287877]	90.3
COc1ccc(Nc2nccc3c2nnn3C)cc1 [CBK287879]	80.9
N#Cc1c(N)nc2c(c1-c1cccnc1)CCCC2 [CBK287885]	85.8
c1ccc2c(c1)CCCN2c1ncnc2n[nH]cc12 [CBK287886]	69.3
Cn1c(=O)n(C)c2cc(-c3nc4ccccc4c(=O)[nH]3)ccc21 [CBK287887]	98.5
CCc1nnc2ccc(NCc3ccccc3)nn12 [CBK287888]	110
COc1cccc(C2CC(=O)Nc3n[nH]cc32)c1OC (centres unmarked) [CBK287889]	88.1
COc1ccc(/N=c2/cc(C)[nH]c3ncnn23)cc1 [CBK287893]	91.1
CC(C)(C)C1=Nn2c(nnc2-c2n[nH]c3c2CCC3)SC1 [CBK287894]	87.7
Cc1ccc(Nc2nc3c(c(=O)[nH]2)CCCC3)cc1 [CBK287895]	100
Cc1nn(-c2ccc3nnc(C)n3n2)c2c1C(c1ccccc1F)CC(=O)N2 (centres unmarked) [CBK287898]	83.3
O=C1N(c2ccc(Cl)cc2)Cc2nc(=O)[nH]n21 [CBK287899]	91.6
O=C(Nc1ccccc1)c1ccc(F)cc1-n1cnnn1 [CBK287903]	111
N#Cc1c2c(c(-c3ccccc3)[nH]c1=O)CCCC2 [CBK287905]	91.6
O=c1cc(O)c2c(=O)[nH]c(=O)n(-c3ccccc3)c2[nH]1 [CBK287907]	88.2
COc1ccc(C2=NNC(=O)C(c3ccc(OC)cc3)C2)cc1 (centres unmarked) [CBK287908]	99.7
COc1ccc(C2CC(=O)c3c(C)n[nH]c3C2)cc1 (centres unmarked) [CBK287911]	114
CN(C)CCCn1cnc2c1c(=O)[nH]c(=O)n2C [CBK287913]	92.2
Cc1cc(C)nc(Nc2ncc(O)n2-c2ccccc2)n1 [CBK287914]	93.5
CCN(CC)CCNc1nc2c(=O)[nH]c(=O)n(C)c2[nH]1 [CBK287918]	116

Compound	viability at 28.5 h, 10 µM [%]
Cc1[nH]nc2c1C(c1ccc(Cl)cc1)N(CCc1c[nH]c3ccccc13)C2=O (centres unmarked) [CBK287919]	114
CC1=Nc2c(cnn2-c2ccccc2)C2=NCCCN12 [CBK287928]	91.6
Cc1c(C)n(Cc2cccnc2)c2ncn(C3CCCCCC3)c(=N)c12 [CBK287932]	85.9
OCCNc1ncnc2c1ncn2Cc1ccccc1 [CBK287933]	106
COc1cc(/C=C/c2cc(C(F)(F)F)[nH]c(=O)n2)c(Cl)cc1O [CBK287936]	80
CCCCC(=O)/N=C(\N)Nc1nc2ccccc2o1 [CBK287937]	87.8
Cc1cc(Cl)ccc1OCC(=O)Nc1nnc[nH]1 [CBK287940]	86.3
COc1cccc(C2=CC(c3ccccc3Cl)N3N=NNC3=N2)c1 (centres unmarked) [CBK287943]	84.4
c1ccc(Oc2nc3ccccc3n3cnnc23)cc1 [CBK287945]	91.9
O=C(COc1ccccc1Cl)Nc1nnc[nH]1 [CBK287946]	80.1
CC(C)c1nc2c(c(=O)c3ccccc3n2C)c(=O)n1-c1ccccc1 [CBK287947]	97.6
CC1CCCN(c2ncnc3c2[nH]c2ccccc23)C1 (centres unmarked) [CBK287948]	106
CCc1cccc(C)c1N(C(=O)Cn1c(=O)[nH]c2ccccc21)C(C)COC (centres unmarked) [CBK287950]	80.1
CN1CCc2c(c(NCC3CCCO3)nc3[nH]nc(N)c23)C1 (centres unmarked) [CBK287955]	103
Cc1cc(C)c2c3c(sc2n1)C(=O)N(C)CC(=O)N3 [CBK287959]	83.8
COc1ccccc1Nc1nc(C)cc(C)c1C(N)=O [CBK287960]	82.7
CCc1c(C)nc2c(-c3ccc(OC)c(OC)c3)cnn2c1O [CBK287962]	87
CC(C)c1nc(-c2cc3ccccc3nc2O)no1 [CBK287964]	112
Cc1ccc(-n2c3nc(=O)[nH]c(=O)c-3cc3c(Cl)cccc32)c(C)c1 [CBK287965]	83.3
COc1ccc(C2=CC(c3ccc(Cl)cc3)N3N=CNC3=N2)cc1OC (centres unmarked) [CBK287966]	84.3
O=C(c1ccccc1)c1cn[nH]c1-c1ccccc1O [CBK287970]	77.8
O=C(Nc1ccncc1)C1(c2ccccc2)CCCC1 [CBK287972]	111

Same assay, conditions: human, hela cells, % viability, bulk resorufin, single well

Compound	viability at 28.5 h, 10 µM [%]
CCC(=O)c1c(O)n(-c2ccccc2)c(=O)[nH]c1=O [CBK287862]	96.8

Reference: article PMC12040169 (PLOS Biology, 2025)
